Measurements from patent US8901042B2, “High throughput screen for measuring membrane effects” (Cornell University, priority 2009, dated 2014).
Like-named read-outs stand apart in the source and are kept apart here.

Tests used:
[1] = test system: gA channel in DC18:1PC/n-decane bilayers; conditions: cited from earlier work; for Single channel: concentration at which the molecule double/half gA channel lifetime: standard bilayer-punch electrophysiological methods
[2] = test system: gramicidin A (gA) channels in DC22:1PC lipid bilayer vesicles; assay: gramicidin-based stopped-flow fluorescence quench assay (Tl+ influx into ANTS-filled, gA-doped LUVs); format: biochemical, Bacillus brevis; conditions: for Flourescence: concentration at which the molecules double/half the rate of the fluorescence quenching: fitted stretched exponential, rate at 2 ms, DC22:1PC LUVs; for rate of quencher influx (rate of stretched exponential): 260 nM gA, mean±SD, n>10, control 36±6
Experimental: 24 hours before fluorescence measurements, ANTS-filled liposomes were mixed 1:20 in S_Na_Buffer. For the portion of liposomes that are to be doped with gramicidin, the desired amount of gramicidins was added at this time. […] Gramicidin diluted in DMSO was used, but the added DMSO was kept to an absolute minimum (<0.1% of volume) as DMSO of >0.5% affects bilayer properties. The solution was stored at 12-13° C. in the dark.
The modifier in question was diluted in DMSO. The same amount of DMSO was added to all samples, including control.
For each condition: • 1. Use 1.5 mL of diluted ANTS-liposomes for each condition (compound, concentration). • 2. Add compound at the desired concentration and incubate for 10 min at 25° C. (keep in dark), or DMSO for controls. • 3. Record fluorescence, x8 repeats, with S_Na_Buffer (the first four should be removed due to mixing). • 4. Record fluorescence, x12 repeats, with S_Tl_Quencher (the first four should also be removed due to mixing).
Generate fluorescent liposomes. […] 1,2-Dierucoyl-sn-Glycero-3-Phosphocholine lipids, from Avanti Polar Lipids (Alabaster, Ala.), were bought in a lipid/chloroform solution and used without further purification. For each batch of vesicles, the lipid/chloroform solution was dried under nitrogen and then further dried in a dessicator under vacuum overnight to fully remove the chloroform. The dried lipid film was rehydrated in 100 mM NaNO3, 25 mM ANTS, 10 mM HEPES at pH 7.0 at room temperature over night, volume was adjusted to give a 10 mM lipid concentration. The suspension was then sonicated in a low power sonicator for 1 min, subjected to 5-6 freeze thaw cycles and extruded 21 times, at room temperature, using Avanti mini-extruder, Avanti Polar Lipids (Alabaster, Ala.), and a 0.1 μm Polycarbonate Membrane filter. External ANTS was removed by filtering though a PD-10 Desalting column, GE Healthcare (Piscataway, N.J.). Prepared ANTS-LUV stock was stored at 12-13° C. in the dark for a maximum of seven days. Before the fluorescence experiments ANTS-LUV stock was diluted 1:20 with 140 mM NaNO3, 10 mM HEPES, pH 7.0 buffer. For the portion of vesicles to be doped with gA the desired amount of gramicidin from Bacillus aneurinolyticus, Sigma Chemical Co. (St. Louis, Mo.), diluted in dimethylsulfoxide (DMSO) was added and incubated for 24 hours at 12-13° C. in the dark.
The final DMSO concentrations were kept consistent for all samples and under 0.5% with the exception of when DMSO was tested, then listed amounts where used and no DMSO was added to controls.
The fluorescence was measured using a SX.20 Stopped-Flow Spectrometer (Applied Photophysics, Leatherhead, UK), with a 150-W Xenon lamp, a two sample rapid mixing unit with machine dead time˜1.2 ms and a thermostatting water bath set to 25° C. The samples were excited at X=352 nm and fluorescence was recorded though λ=455 nm high pass filter with Pro-Data control software from Applied Photophysics, sampling 5000 points a second. For each sample at least 10 repeated mixing trials were measured, from two or more vesicle preparations. Each repeat was separately analyzed using MATLAB v7.4, The MathWorks, Inc (Natick, Mass.). The time course of fluorescence quenching was normalized to the average fluorescence without quencher, for that particular sample, and the first 2-100 ms of the time course was fitted with a stretched exponential. The initial influx rate is quantified as the rate of the stretched exponential at 2 ms.

[3] = target: Shaker potassium channel (Drosophila melanogaster, UniProt P08510); conditions: cited from earlier work
Shaker potassium channel, sequence (P08510 whole entry): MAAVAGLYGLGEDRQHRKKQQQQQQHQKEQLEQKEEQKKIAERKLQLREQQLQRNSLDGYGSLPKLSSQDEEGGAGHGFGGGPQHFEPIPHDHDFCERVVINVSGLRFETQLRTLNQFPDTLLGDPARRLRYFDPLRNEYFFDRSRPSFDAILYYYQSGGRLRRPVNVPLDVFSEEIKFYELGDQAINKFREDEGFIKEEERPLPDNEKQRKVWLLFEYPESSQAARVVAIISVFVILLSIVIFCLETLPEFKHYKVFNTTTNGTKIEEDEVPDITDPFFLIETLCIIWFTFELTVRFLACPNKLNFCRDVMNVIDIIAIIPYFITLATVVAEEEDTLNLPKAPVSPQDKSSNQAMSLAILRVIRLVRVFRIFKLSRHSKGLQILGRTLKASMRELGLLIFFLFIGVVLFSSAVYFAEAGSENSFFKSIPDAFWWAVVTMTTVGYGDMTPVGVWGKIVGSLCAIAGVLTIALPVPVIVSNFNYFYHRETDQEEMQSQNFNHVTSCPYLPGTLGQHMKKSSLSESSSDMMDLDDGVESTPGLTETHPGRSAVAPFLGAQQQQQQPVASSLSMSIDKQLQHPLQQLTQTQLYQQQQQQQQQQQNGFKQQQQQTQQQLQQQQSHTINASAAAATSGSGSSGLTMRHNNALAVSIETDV

Compound | Single channel: concentration at which the molecule double/half gA channel lifetime [1] | Flourescence: concentration at which the molecules double/half the rate of the fluorescence quenching [2] | also measured
OC(c1cc(C(F)(F)F)nc2c(C(F)(F)F)cccc12)C1CCCCN1 (centres unmarked) [Mefloquine] | 6 µM | 37 | gA channel frequency ([1]; single-channel electrophysiology): decreases
[Gd+3] [Gd^3+] | > 30 µM | <1000 | –
COc1cc(CNC(=O)CCCC/C=C/C(C)C)ccc1O [Capsaicin] | 25 µM | 21 | rate of quencher influx (rate of stretched exponential) ([2]; 10 μM capsaicin): 69±6; rate of quencher influx (rate of stretched exponential) ([2]; 30 μM capsaicin): 85±8; rate of quencher influx (rate of stretched exponential) ([2]; 90 μM capsaicin): 247±27; rate of fluorescence quenching (Tl+ influx) in the presence of gramicidin ([2]; 10, 30, 90 μM, concentration dependent): increased
(−)-epigallocatechin gallate | 0.25 µM | 12 | effect on gA channel conductance ([1]; single-channel): causes conductance flickers or sub-conductance states
CCCCCCCCO[C@@H]1O[C@H](CO)[C@@H](O)[C@H](O)[C@H]1O [β-octylglucoside] | 270 µM | 325 | –
Oc1cc2c(cc1O)CN(C(=S)NCCc1ccc(Cl)cc1)CCC2 [Capsazepine] | 4 µM | 16 | –
O=c1c(-c2ccc(O)cc2)coc2cc(O[C@@H]3O[C@H](CO)[C@@H](O)[C@H](O)[C@H]3O)cc(O)c12 [Genistin] | >>30 | 910 | –
C[S+](C)[O-] [Dimethyl sulfoxide] | – | 340,000 | Single channel: concentration at which the molecule double/half gA channel lifetime ([1]; in µM): >410,000; amount that affects bilayer properties ([2]; % of volume): > 0.5%
NCCc1c(SSc2[nH]c3cc(Br)ccc3c2CCN)[nH]c2cc(Br)ccc12 [BrMT] | – | – | Shaker potassium channel activation [3]: slows; effect on lipid bilayer properties (gA channel activity, stopped-flow) ([2]; stopped-flow experiments): altered lipid bilayer properties
Triton X-100 | 9 µM | 13 | –
O=c1c(-c2ccc(O)cc2)coc2cc(O)cc(O)c12 [Genistein] | 25 µM | 22 | –
